Data taken from patent US20240053346A1, “FLUORESCENT DYE AND METHOD FOR DETECTING TUMOR CELLS” (NATIONAL UNIVERSITY CORPORATION EHIME UNIVERSITY, priority 2020, published 2024).
Where two headings read alike, the source gives them in different places.

Columns and labels:
[1] = test system: extramammary Paget's disease lesion tissue; experiment: Test Example 3: staining with various SC compounds, two-photon microscopy; settings: cleared Paget's disease lesion tissue; for imaging performance for fluorescence observation (rank): judged by fluorescence intensity and contrast of staining
Description: (§1) The staining solution of Test Examples 1 and 2 was prepared by dissolving PK in DMSO at 1 mg/mL. Each of staining solutions of Test Example 3 and Test Example 4 was a DMSO solution containing 1 mM of an SC compound, and was diluted 100 times for use of staining.
(§2) As the skin normal part tissue, the extramammary Paget's disease lesion tissue, and the melanoma lesion tissue used in Test Examples, whole tissue sections of the tissues obtained by excision were used. A dermatologist has confirmed in advance the identification of each tissue. Also, a normal part tissue and a tumor tissue of the rectum were also prepared by whole-sectioning of the tissues obtained by excision, and a specialist has confirmed the identification of each tissue. The collection and use of the tumor tissues were approved by the Clinical Research Ethics Review Board at Ehime University Hospital (No. 1802009) and were conducted according to its study protocol.
(§3) For microscopy, a two-photon microscope AIR MP+(NIKON) was used. In the measurement, a 960 nm laser light source and a 495 nm filter were used for PK, and a 561 nm filter was used for PI. Scanning was performed to a depth of 100 μm of the sample. The three-dimensional reconstructed image is obtained by processing the obtained data with the software included.
(§4) Normal part tissue of the skin and extramammary Paget's disease lesion tissue cleared by LUCID method in the same manner as in Test Example 2 were stained with a staining solution containing PK, PC, Nile Red, or POLARIC. Each stained tissue section was observed according to the method of two-photon microscopy of Test Example 1. The images were produced by coloring a fluorescent wavelength of 492 nm or less in cyan, 500 to 550 nm in green, 560 to 593 nm in yellow, and 593 nm or more in red. Brightness and contrast of the illustrated images were appropriately corrected.

[2] = test system: melanoma lesion tissue of the skin; experiment: as above; settings: for imaging performance for fluorescence observation (rank): cleared melanoma lesion tissue
Description: as §1, §2, §3, §4
Melanoma lesion tissue of the skin cleared by the same method were similarly stained and observed with a two-photon microscope.

[3] = test system: extramammary Paget's disease lesion tissue, tumor cells (Paget cells); experiment: Test Example 1: PK staining of thin sliced section, two-photon microscopy
Description: as §1, §2
The extramammary Paget's disease lesion tissue and the normal part tissue were embedded in paraffin and then cut out to prepare tissue sections. The preparation of the sections (thickness: 5 μm) was performed by the procedure usually performed in histopathological examination. For staining with the PK staining solution, deparaffinization was performed by a conventional method, and then staining was performed by immersion in the PK staining solution at room temperature for several days to one week. In practice, the tissues were sufficiently stained by immersion in the PK staining solution at room temperature for 2 to 3 days.
as §3

[4] = test system: extramammary Paget's disease lesion tissue (Paget cells); experiment: Test Example 2: PK staining of cleared three-dimensional tissue, two-photon microscopy
Description: as §1, §2, §3
(§5) Derived extramammary Paget's disease lesion tissue having a thickness of 500 μm and malignant melanoma lesion tissue having a thickness of 100 μm were subjected to a clearing treatment without being subjected to fixation and thinly slicing, and then stained with PK and propidium iodide (PI). Clearing treatment was performed by using LUCID method, according to the procedure described in Sawada K, Kawakami R, Shigemoto R, and Nemoto T. Eur. J. Neurosci., 2018, Vol. 47, No. 9, 1033-1042. The cleared tissue was stained with a PK staining as in Test Example 1. PI staining was performed by a method usually performed in tissue staining. As conditions for microscopy, the same conditions as in Test Example 1 were used for detection of PK signals.

[5] = test system: malignant melanoma lesion tissue (melanoma cells); experiment: as above; settings: cleared tissue 100 μm thick, LUCID method, 495 nm
Description: as §1, §2, §3, §5

[6] = test system: normal rectal mucosal epithelium (columnar epithelium); experiment: Test Example 4: PK and Hoechst staining of rectum, two-photon microscopy; settings: cleared by LUCID method, co-stained with Hoechst
Description: The staining solution of Test Examples 1 and 2 was prepared by dissolving PK in DMSO at 1 mg/mL. […]
as §2, §3
The normal part tissue and the well-differentiated adenocarcinoma lesion tissue of the rectum cleared by LUCID method in the same manner as in Test Example 2 were stained with PK and Hoechst. […]

[7] = test system: well-differentiated adenocarcinoma lesion tissue of the rectum; experiment: as above; settings: cleared by LUCID method, co-stained with Hoechst
Description: as §1, §2
as §3, with “included. […]” for “included.”

[8] = cited from earlier work
[9] = Measurement of photophysical properties of PC in organic solvent and phosphate buffer (absorption spectrum, fluorescence spectrum, fluorescence quantum yield); format: physicochemical; settings: 20 mM phosphate buffer (pH 7.4) at 25° C.
[10] = 5 μm paraffin section, 960 nm laser, 495 nm filter

Structure (SMILES)	fluorescence intensity of the raw image [1]	imaging performance for fluorescence observation (rank) [1]	shift of the fluorescence wavelength due to solvatochromism ([2]; Test Example 3 stained tissue)	imaging performance for fluorescence observation (rank) [2]	distinction of tumor cells from normal cells [3, 10]	fluorescence signal in the parts where the tumor cells (Paget cells) exist [3, 10]	distribution of the dye in cells ([3]; thin sliced section)	detection of tumor cells (Paget cells) ([4]; cleared tissue 500 μm thick, LUCID method, 495 nm)	signals in normal cells of the epidermis, dermis, and hair follicle ([4]; normal cells within the observed lesion tissues of Test Example 2)	fluorescence signal in malignant melanoma cells [5]	staining of normal rectal mucosal epithelium [6]	staining of rectal tumor lesion [7]	absorption maximum wavelength ([8]; 20 mM phosphate buffer (pH 7.4) at room temperature)	fluorescence maximum wavelength λDMSO ([8]; DMSO)	fluorescence maximum wavelength λMet ([8]; methanol)	fluorescence maximum wavelength λHep ([8]; n-heptane)	fluorescence maximum wavelength ΔTol ([8]; toluene)	absorption maximum wavelength [9]	fluorescence maximum wavelength [9]
CCN(CC)c1ccc2nc3c4ccccc4c(=O)cc-3oc2c1 [Nile Red]	lower than those of PK and PC	followed by PK, Nile Red, and POLARIC in this order	relatively small	followed by PK, POLARIC, and Nile Red in this order															
CC(=O)c1ccc2ccc3c(N4CCCCC4)ccc4ccc1c2c43 [PK, 1-Acetyl-6-piperidylpyrene]		followed by PK, Nile Red, and POLARIC in this order		followed by PK, POLARIC, and Nile Red in this order	tumor cells can be distinguished from normal cells	the fluorescence wavelength shifted and the signal level decreased	inserted into cell membranes	successfully detected even when they were scattered one by one	significantly observed in all of these cells	not observed	cell membranes were positive for PK staining, cytoplasm was poorly stained	cytoplasmic staining property by PK staining was high	407 nm	558 nm	593 nm	474 nm	503 nm		
CCCC(=O)/C=C/c1ccc2ccc3c(N4CCCCC4)ccc4ccc1c2c43 [compound A, (E)-1-(6-(piperidin-1-yl)pyren-1-yl)hexa-1-en-3-one]		best performance		best performance														421 nm	621 nm
